Results on ten molecules are retold here after patent US20240116985A1, “STAPLED PEPTIDES AND METHODS THEREOF” (priority 2020, published 2024).

A word on the Solubility: it is the dissolved amount per volume that the medium holds. Broadly, the chromatographic logD is lipophilicity estimated from chromatographic retention. A higher chromatographic logD goes with a more lipophilic compound.

≈ marks a conversion by molar mass, not a printed value. Read-outs that look alike come from different tables or passages of the source.

The target of data set [1] is T1, full-length beta-Catenin (Uniprot ID P35222) (Homo sapiens, UniProt P35222).
T1 construct: 10 nM full-length beta-Catenin (Uniprot ID P35222)
T1 sequence (P35222 1-781): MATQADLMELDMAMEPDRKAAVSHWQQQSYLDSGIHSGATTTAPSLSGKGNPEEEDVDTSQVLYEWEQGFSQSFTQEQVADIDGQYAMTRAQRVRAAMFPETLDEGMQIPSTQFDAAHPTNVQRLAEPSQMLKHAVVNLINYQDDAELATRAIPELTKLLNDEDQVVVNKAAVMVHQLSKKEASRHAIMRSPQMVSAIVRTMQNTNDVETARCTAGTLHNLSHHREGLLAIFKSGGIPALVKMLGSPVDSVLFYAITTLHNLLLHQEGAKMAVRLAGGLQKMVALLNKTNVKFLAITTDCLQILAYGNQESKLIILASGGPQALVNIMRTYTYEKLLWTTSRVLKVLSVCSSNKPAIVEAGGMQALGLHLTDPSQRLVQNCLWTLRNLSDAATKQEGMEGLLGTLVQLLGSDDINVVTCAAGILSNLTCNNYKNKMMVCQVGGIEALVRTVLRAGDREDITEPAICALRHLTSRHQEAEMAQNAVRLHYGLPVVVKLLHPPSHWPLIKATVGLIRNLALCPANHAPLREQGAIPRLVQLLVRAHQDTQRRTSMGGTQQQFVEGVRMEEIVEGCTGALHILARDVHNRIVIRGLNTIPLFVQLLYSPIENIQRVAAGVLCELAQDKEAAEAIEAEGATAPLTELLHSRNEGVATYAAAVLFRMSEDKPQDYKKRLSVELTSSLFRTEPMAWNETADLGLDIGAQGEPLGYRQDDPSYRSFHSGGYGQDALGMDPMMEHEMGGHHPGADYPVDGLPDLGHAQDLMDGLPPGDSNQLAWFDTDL
In words: Fluorescence polarization IC50 (beta-catenin / 5FAM-TCF4 10-53 competition). It is filed as binding.

A further data set is described as follows: Solubility in PBS. It is filed as physicochemical. The procedure, abridged:
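Solubility is derived from HPLC peak areas: the ratio of the PBS supernatant peak to a 50 μM DMSO peptide peak, times 50 uM.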

The next data set can be described thus: CHI Log D procedure. It is filed as physicochemical. The note with it: for CHI Log D: pH 7.4.
Where [2] appears, read: fluorescence polarization, beta-catenin, read-out: FP EC50.

`CC(=O)N1CCC[C@]12CC=CCCCC1(CCCC=CCCCOC(=O)N3CC[C@@](C(=O)N[C@@H](Cc4ccccc4Cl)C(=O)N[C@@H](Cc4csc5ccccc45)C(=O)N[C@H](C(N)=O)[C@@H](C)O)(C3)NC(=O)[C@H](CC(C)C)NC(=O)[C@H](Cc3ccccc3)NC(=O)[C@H](C)NC(=O)[C@H](C)NC(=O)[C@H](CC(=O)O)NC(=O)[C@H](CC(=O)O)NC1=O)NC(=O)[C@H](CC(C)(C)C)NC(=O)[C@H](CC(=O)O)NC2=O` (stereo partly drawn) [I-1069, Ac-PL3-Asp-Npg-B5-Asp-Asp-Ala-Ala-Phe-Leu-PyrS2-2C1F-BztA-Thr-NH2]: the IC50 in data set [1] (setting [2]) and in data set [1] (read-out: beta-Catenin FP IC50) was 920 nM in each case. The “Solubility” value in the data set “Solubility in PBS” came to 10 µM (≈ 19.2 µg/mL). Also, the “CHI Log D” value in “CHI Log D procedure” is on record as 2.113.

For `CC(=O)N1CCC[C@]12CC=CCCCC1(CCCC=CCCCOC(=O)N3CC[C@@](C(=O)N[C@@H](Cc4ccccc4Cl)C(=O)N[C@@H](Cc4csc5ccccc45)C(=O)N[C@H](C(N)=O)[C@@H](C)O)(C3)NC(=O)[C@H](CC(C)C)NC(=O)[C@H](Cc3ccccc3)NC(=O)[C@H](C)NC(=O)[C@H](C)NC(=O)[C@H](CCC(=O)O)NC(=O)[C@H](CC(=O)O)NC1=O)NC(=O)[C@H](CC(C)(C)C)NC(=O)[C@H](CC(=O)O)NC2=O` (stereo partly drawn) [I-1070, Ac-PL3-Asp-Npg-B5-Asp-Glu-Ala-Ala-Phe-Leu-PyrS2-2C1F-BztA-Thr-NH2], the IC50 in data set [1] (setting [2]) and in data set [1] (read-out: beta-Catenin FP IC50) was 1020 nM each time. Further, in “Solubility in PBS”, the “Solubility” value came out at 10 µM (≈ 19.3 µg/mL). For the same molecule, in “CHI Log D procedure”, the “CHI Log D” value amounted to 2.135.

In the case of `CC(=O)N1CCC[C@]12CC=CCCCC1(CCCC=CCCCOC(=O)N3CC[C@@](C(=O)N[C@@H](Cc4ccccc4Cl)C(=O)N[C@@H](Cc4csc5ccccc45)C(=O)N[C@H](C(N)=O)[C@@H](C)O)(C3)NC(=O)[C@H](CC(C)C)NC(=O)[C@H](Cc3ccccc3)NC(=O)[C@H](C)NC(=O)[C@H](C)NC(=O)[C@H](CCC(=O)O)NC(=O)[C@H](CC(=O)O)NC1=O)NC(=O)[C@H](CC(C)(C)C)NC(=O)[C@H](CC(=O)O)NC2=O` (stereo partly drawn) [I-1071, Ac-PL3-Asp-Npg-B5-Asp-Glu-Ala-Ala-Phe-Leu-PyrS2-2C1F-BztA-Thr-NH2], the IC50 in data set [1] (setting [2]) and in data set [1] (read-out: beta-Catenin FP IC50) was 1260 nM each time. In addition, the “Solubility” value in “Solubility in PBS” was 33 µM (≈ 63.8 µg/mL). The “CHI Log D” value in “CHI Log D procedure” was 2.218.

Consider `CC(=O)N1CCC[C@]12CC=CCCCC1(CCCC=CCCCOC(=O)N3CC[C@@](C(=O)N[C@@H](Cc4ccccc4)C(=O)N[C@@H](Cc4csc5ccccc45)C(=O)N[C@@H](CCC(N)=O)C(N)=O)(C3)NC(=O)[C@H](CC(C)C)NC(=O)[C@H](Cc3ccccc3)NC(=O)[C@H](C)NC(=O)[C@H](C)NC(=O)[C@H](CCC(=O)O)NC(=O)[C@H](CC(=O)O)NC1=O)NC(=O)[C@H](CC(C)(C)C)NC(=O)[C@H](CC(=O)O)NC2=O` (stereo partly drawn) [I-1073, Ac-PL3-Asp-Npg-B5-Asp-Glu-Ala-Ala-Phe-Leu-PyrS2-Phe-BztA-Gln-NH2], for which the IC50 in data set [1] (setting [2]) and in data set [1] (read-out: beta-Catenin FP IC50) was 409 nM each time. In addition, the “Solubility” value in the data set “Solubility in PBS” is 31 µM (≈ 59.7 µg/mL). The “CHI Log D” value in “CHI Log D procedure” was determined as 1.831.

In the case of `CC(=O)N1CCC[C@]12CC=CCCCC1(CCCC=CCCCOC(=O)N3CC[C@@](C(=O)N[C@@H](Cc4ccccc4)C(=O)N[C@@H](Cc4csc5ccccc45)C(=O)N[C@@H](CCC(N)=O)C(N)=O)(C3)NC(=O)[C@H](CC(C)C)NC(=O)[C@H](Cc3ccccc3)NC(=O)[C@H](C)NC(=O)[C@H](C)NC(=O)[C@H](CCC(=O)O)NC(=O)[C@H](CC(=O)O)NC1=O)NC(=O)[C@H](CC(C)(C)C)NC(=O)[C@H](CC(=O)O)NC2=O` (stereo partly drawn) [I-1074, Ac-PL3-Asp-Npg-B5-Asp-Glu-Ala-Ala-Phe-Leu-PyrS2-Phe-BztA-Gln-NH2], the IC50 in data set [1] (setting [2]) and in data set [1] (read-out: beta-Catenin FP IC50) was 498 nM each time. Also, the “Solubility” value in “Solubility in PBS” is 34 µM (≈ 65.5 µg/mL). In “CHI Log D procedure”, the “CHI Log D” value was determined as 1.92.

As to `CC(=O)N1CCC[C@]12CC=CCCCC1(CCCC=CCCCOC(=O)N3CC[C@@](C(=O)N[C@@H](Cc4ccccc4Cl)C(=O)N[C@@H](Cc4csc5ccccc45)C(=O)N[C@@H](CCC(N)=O)C(N)=O)(C3)NC(=O)[C@H](CC(C)C)NC(=O)[C@H](Cc3ccccc3)NC(=O)[C@H](C)NC(=O)[C@H](C)NC(=O)[C@H](CC(=O)O)NC(=O)[C@H](CC(=O)O)NC1=O)NC(=O)[C@H](CC1CCCCC1)NC(=O)[C@H](CC(=O)O)NC2=O` (stereo partly drawn) [I-1075, Ac-PL3-Asp-Cha-B5-Asp-Asp-Ala-Ala-Phe-Leu-PyrS2-2C1F-BztA-Gln-NH2], the IC50 in data set [1] (setting [2]) and in data set [1] (read-out: beta-Catenin FP IC50) was 567 nM in each case. For the same molecule, in the data set “Solubility in PBS”, the “Solubility” value amounted to 17 µM (≈ 33.5 µg/mL). The “CHI Log D” value in the data set “CHI Log D procedure” was 1.971.

For `CC(=O)N1CCC[C@]12CC=CCCCC1(CCCC=CCCCOC(=O)N3CC[C@@](C(=O)N[C@@H](Cc4ccccc4Cl)C(=O)N[C@@H](Cc4csc5ccccc45)C(=O)N[C@@H](CCC(N)=O)C(N)=O)(C3)NC(=O)[C@H](CC(C)C)NC(=O)[C@H](Cc3ccccc3)NC(=O)[C@H](C)NC(=O)[C@H](C)NC(=O)[C@H](CCC(=O)O)NC(=O)[C@H](CC(=O)O)NC1=O)NC(=O)[C@H](CC1CCCCC1)NC(=O)[C@H](CC(=O)O)NC2=O` (stereo partly drawn) [I-1077, Ac-PL3-Asp-Cha-B5-Asp-Glu-Ala-Ala-Phe-Leu-PyrS2-2C1F-BztA-Gln-NH2], the IC50 in data set [1] (setting [2]) and in data set [1] (read-out: beta-Catenin FP IC50) was 324 nM in each case. The “Solubility” value in the data set “Solubility in PBS” is 10 µM (≈ 19.9 µg/mL). For the same molecule, the “CHI Log D” value in the data set “CHI Log D procedure” was determined as 2.06.

In the case of `CC(=O)N1CCC[C@]12CC=CCCCC1(CCCC=CCCCOC(=O)N3CC[C@@](C(=O)N[C@@H](Cc4ccccc4Cl)C(=O)N[C@@H](Cc4csc5ccccc45)C(=O)N[C@@H](CCC(N)=O)C(N)=O)(C3)NC(=O)[C@H](CC(C)C)NC(=O)[C@H](Cc3ccccc3)NC(=O)[C@H](C)NC(=O)[C@H](C)NC(=O)[C@H](CCC(=O)O)NC(=O)[C@H](CC(=O)O)NC1=O)NC(=O)[C@H](CC1CCCCC1)NC(=O)[C@H](CC(=O)O)NC2=O` (stereo partly drawn) [I-1078, Ac-PL3-Asp-Cha-B5-Asp-Glu-Ala-Ala-Phe-Leu-PyrS2-2C1F-BztA-Gln-NH2], the IC50 in data set [1] (setting [2]) and in data set [1] (read-out: beta-Catenin FP IC50) was 352 nM throughout. In “Solubility in PBS”, the “Solubility” value came out at 27 µM (≈ 53.6 µg/mL). Further, in “CHI Log D procedure”, the “CHI Log D” value came to 2.162.

For `CC(=O)N1CCC[C@]12CC=CCCCC1(CCCC=CCCCOC(=O)N3CC[C@@](C(=O)N[C@@H](Cc4ccccc4Cl)C(=O)N[C@@H](Cc4csc5ccccc45)C(=O)N[C@@H](CCC(N)=O)C(=O)NCCCCCCN=[N+]=[N-])(C3)NC(=O)[C@H](Cc3ccccc3)NC(=O)[C@H](Cc3ccccc3)NC(=O)[C@H](C)NC(=O)[C@H](C)NC(=O)[C@H](CN(CC(=O)O)CC(F)(F)F)NC(=O)[C@H](CC(=O)O)NC1=O)NC(=O)[C@H](CC(C)(C)C)NC(=O)[C@H](CC(=O)O)NC2=O` (stereo partly drawn) [I-1085, Ac-PL3-Asp-Npg-B5-Asp-TfeGA-Ala-Ala-Phe-Phe-PyrS2-2C1F-BztA-Gln-6AzHex], the IC50 in data set [1] (setting [2]) was found to be 390 nM. Besides, in “Solubility in PBS”, the “Solubility” value came to 10 µM (≈ 22.2 µg/mL). In “CHI Log D procedure” (pH 7.4, CHI Log D), the chromatographic logD is 3.7.

Turning to `CC(=O)N1CCC[C@]12CC=CCCCC1(CCCC=CCCCCCC[C@@](C)(C(=O)N[C@@H](Cc3ccccc3Cl)C(=O)N[C@@H](Cc3csc4ccccc34)C(=O)N[C@@H](C(N)=O)[C@H](C)O)NC(=O)[C@H]([C@@H](C)O)NC(=O)[C@H](Cc3ccccc3)NC(=O)[C@H](C)NC(=O)[C@H](C)NC(=O)[C@H](CCC(=O)O)NC(=O)[C@H](CC(=O)O)NC1=O)NC(=O)[C@H](CC(C)(C)C)NC(=O)[C@H](CC(=O)O)NC2=O` (stereo partly drawn) [I-1093, Ac-PL3-Asp-Npg-B5-Asp-Glu-Ala-Ala-Phe-Thr-S8-2C1F-BztA-dThr-NH2], the IC50 in data set [1] (setting [2]) and in data set [1] (read-out: beta-Catenin FP IC50) was 43 nM in each case. In addition, the “Solubility” value in the data set “Solubility in PBS” was 48 µM (≈ 90.1 µg/mL). Besides, the “CHI Log D” value in “CHI Log D procedure” worked out at 3.22.
